Measurements taken from US4388237A, “6(1-Piperazinyl), piperidino and (1(homopiperazinyl)11-cyanomethylene morphanthridines” (BASF Aktiengesellschaft, priority 1979, dated 1983).
Entries after “also recorded” stand apart in the source; their conditions may differ. Structures can show the parent of a compound that is named as a salt.

What was measured:
Assay type in all cases: in vivo
female NMRI mice [1] = assay: Analgesic effect (D'Amour and Smith tail-flick method); details: for Analgesic effect ED 100%: intraperitoneal, mice, dose lengthening tail-flick reaction time by 100%, 30 minutes after administration; for Analgesic effect R.A. (relative activity): relative to Clozapin (1.00); for Analgesic effect (in words): discussion of Table 1
Description: The analgesic effect is determined by means of the D'Amour and Smith (1941) tail-flick method. In this, the substances are administered intraperitoneally to groups of 10 female NMRI mice. The pain reaction is triggered 30 minutes after administration. The reaction time, until the tail is flicked out of the way after exposure to a focused light beam, is measured.

[2] = system: female Sprague-Dawley rats; assay: Apomorphine-antagonistic effect (jaw movements, mandibulogram); details: for Apomorphine antagonism R.A. (relative activity): relative to Clozapin (1.00)
Description: 4. Apomorphine-antagonistic effect
Jaw motions are triggered in groups of 4-6 female Sprague-Dawley rats by subcutaneous administration of 1.5 mg of apomorphine/kg, and are recorded by means of implanted electrodes (Kubacki mandibulogram, 1978) .

female NMRI mice [3] = assay: Sedative effect (orientation hypermotility); details: for Sedative effect R.A. (relative activity): relative to Clozapin (1.00); for Sedative effect (in words): discussion of Table 1
Description: The substances are administered orally to groups of 4×3 or 8×3 female NMRI mice. The orientation hypermotility induced by a new environment is determined photoelectrically, 30 minutes after the administration of the substances, for a period of 30 minutes.

female NMRI mice [4] = assay: Anti-cholinergic effect (protection against death from Physostigmin)
Description: 3. Anti-cholinergic effect
A lethal dose (0.825 mg/kg) of Physostigmin is administered subcutaneously to groups of 10 female NMRI mice. The test substances are administered orally 30 minutes before administering the Physostigmin.

Compound | Analgesic effect ED 100% (female NMRI mice [1]) [mg/kg] | Analgesic effect R.A. (relative activity) (female NMRI mice [1]) | Apomorphine antagonism R.A. (relative activity) [2] | Sedative effect R.A. (relative activity) (female NMRI mice [3]) | further results
C[N+]1([O-])CCN(C2=Nc3ccccc3/C(=C/C#N)c3ccccc32)CC1 [67 cis-isomer, cis-11-cyanomethylene-6-(4-methyl-4-oxy-piperazin-1-yl)-morphanthridine] | > 46.4 | < 0.04 | < 0.08 | 0.26 | 
CN1CCN(C2=Nc3cc(Cl)ccc3Nc3ccccc32)CC1 [Clozapin, reference compound] | 2.08 | 1.00 | 1.00 | 1.00 | 
CN1CCN(C2=Nc3ccccc3C(=CC#N)c3ccccc32)CC1 [1 cis-trans M, cis- and trans-11-Cyanomethylene-6-(4-methyl-piperazin-1-yl)-morphanthridine] | 46.4 |  |  |  | Analgesic effect (in words) (female NMRI mice [1]): not analgesically active; Apomorphine-antagonistic effect (in words) ([2]; discussion of Table 1): somewhat weaker than that of Clozapin; Sedative effect (in words) (female NMRI mice [3]; listed as Example 1 (cis-trans mixture)): relatively strong sedative effects; also recorded: more strongly sedative; ED50 (female NMRI mice [4]; Mus musculus, read-out: Anti-cholinergic effect ED 50%, oral, 30 minutes before Physostigmin 0.825 mg/kg subcutaneous, mice, dose protecting 50% of the animals against death): 6.26 mg/kg
Cc1ccc2c(c1)N=C(N1CCN(C)CC1)c1ccccc1/C2=C\C#N [13a cis-isomer, cis-3-methyl-11-cyanomethylene-6-(4-methyl-piperazin-1-yl)-morphanthridine] | 0.74 |  |  |  | Analgesic effect (in words) (female NMRI mice [1]): An analgesic effect is found; also recorded: responsible for the strong sedative and strong analgesic effects; Sedative effect (in words) (female NMRI mice [3]): responsible for the strong sedative and strong analgesic effects
N#CC=C1c2ccccc2N=C(N2CCCNCC2)c2ccccc21 (mixture of isomers) [32 cis-trans M, cis,trans-11-Cyanomethylene-6-homopiperazin-1-yl-morphanthridine.HCl.H2 O] | 46.4 | 0.04 | < 0.08 | > 0.22 | 
CN1CCN(C2=Nc3ccccc3Cc3ccccc32)CC1 [Perlapin, reference compound] |  | < 0.10 | 0.37 | 2.31 | 
CN1CCN(C2=Nc3ccccc3/C(=C\C#N)c3ccccc32)CC1 [1 trans-isomer, trans-11-cyanomethylene-6-(4-methyl-piperazin-1-yl)-morphanthridine] | > 21.5 |  |  |  | 
Cc1ccc2c(c1)N=C(N1CCN(C)CC1)c1ccccc1/C2=C/C#N [13a trans-isomer, trans-3-methyl-11-cyanomethylene-6-(4-methylpiperazin-1-yl)-morphanthridine] | 68.1 |  |  |  | 
N#CC=C1c2ccccc2N=C(NCCN2CCCCC2)c2ccccc21 (mixture of isomers) [38 cis-trans M, cis,trans-11-Cyanomethylene-6-(2-piperidin-1-yl-ethylamino)-morphanthridine.1/2H2 O] | > 10 |  | 0.17 | 2.94 | 
C[N+]1([O-])CCN(C2=Nc3ccccc3/C(=C\C#N)c3ccccc32)CC1 [67 trans-isomer, t rans-11-cyanomethylene-6-(4-methyl-4-oxy-piperazin-1-yl)-morphanthridine] | > 100 | < 0.02 | 0.32 | 0.04 | 
CCN1CCN(C2=Nc3ccccc3C(=CC#N)c3ccccc32)CC1 (mixture of isomers) [31 cis-trans M, cis,trans-11-Cyanomethylene-6-(4-ethyl-piperazin-1-yl)-morphanthridine] | > 10 |  |  |  | 
C[N+]1([O-])CCN(C2=Nc3ccccc3C(=CC#N)c3ccccc32)CC1 (mixture of isomers) [67 cis-trans M, cis,trans-11-Cyanomethylene-6-(4-methyl-4-oxypiperazin-1-yl)-morphanthridine.2H2 O] | > 46.4 | < 0.04 | 0.09 | 0.33 | 
Cc1ccc2c(c1)N=C(N1CCN(C)CC1)c1ccccc1C2=CC#N (mixture of isomers) [13a cis-trans M, cis,trans-3-Methyl-11-cyanomethylene-6-(4-methylpiperazin-1-yl)-morphanthridine] | 5.17 |  |  |  | 
Cc1ccc2c(c1)C(=CC#N)c1ccccc1C(N1CCN(C)CC1)=N2 (mixture of isomers) [13b cis-trans M, cis,trans-2-Methyl-11-cyanomethylene-6-(4-methyl-piperazin-1-yl)-morphanthridine] | 10 |  |  |  | 
CN1CCN(C2=Nc3ccccc3/C(=C/C#N)c3ccccc32)CC1 [1 cis-isomer, cis-11-cyanomethylene-6-(4-methylpiperazin-1-yl)-morphanthridine] | 31.6 |  |  |  | Anti-cholinergic effect (in words) (female NMRI mice [4]; discussion of Table 1, Physostigmin antagonism): approximately comparable anti-cholinergic effect
CCN1CCN(C2=Nc3ccccc3/C(=C\C#N)c3ccccc32)CC1 [31 trans-isomer, trans-11-cyanomethylene-6-(4-ethyl-piperazin-1-yl)-morphanthridine] | > 46.4 |  |  |  | 
